Laboratory results published in US4118561A, “7-(Substituted)-7H-pyrrolo[3,2-f]quinazoline-1,3-diamines” (priority 1977, dated 1978).
Converted amounts (≈) assume the structure as drawn. Like-named read-outs stand apart in the source and are kept apart here.

Legend:
E. coli 9637 = assay: In vitro antibacterial activity (MIC), E. coli 9637; conditions: Escherichia coli, 9637, 18 h
S. paratyphi 11737 = assay: In vitro antibacterial activity (MIC), S. paratyphi 11737; assay type: cell-based; conditions: Salmonella enterica, 18 h
[1] = Antimalarial blood schizonticidal test in mice; assay type: in vivo, Plasmodium berghei (infected ICR/HA Swiss mice); parameters: ΔMST (increase in mean survival time): unit: days; conditions: mouse, in vivo, sc, single dose, read-out: Highest Non-Lethal Dose
Source text: (§1) In addition, the invention provides compounds which have antimalarial activity in vivo as evidenced by a standard blood schizonticidal test in mice infected with Plasmodium berghei KBG 173.
(§2) Utilizing young ICR/HA Swiss mice and a standard inoculum of Plasmodium berghei KBG 173, it is possible to produce a uniform disease fatal to 100% of untreated animals within 6 to 8 days with a mean survival time of 6.2 days. Test animals weigh from 18 to 22 grams but weight variations in any given experimental or control group are confined to 2-3 grams. All animals in any given test are approximately of the same age. Animals on test are housed in metal-topped plastic cages, given a standard laboratory diet and water ad libitum.
(§3) Test animals receive an intraperitoneal injection of 0.5 ml. of 1:100 dilution of heparinized heart's blood with a minimum of 90% parasitized cells (4 × 10^7 cells), drawn from donor mice infected one week earlier with Plasmodium berghei. The donor strain is maintained by weekly passages in separate groups of mice inoculated with a 0.5 ml. of 1:500 dilution of heparinized heart's blood.
(§4) Test compounds are administered after dissolution or suspension in peanut oil. A single dose is given subcutaneously 72 hours after the mice are infected with Plasmodium berghei. At this time a 10-15 percent parasitemia has developed; the disease is well established but has not produced sufficient debility to alter the response of the host to toxic effects of the drug on test. Since treatment is withheld for three days to permit the infection to become well established and death occurs in untreated controls within 6-8 days, it is felt that this system presents a candidate compound with the maximum challenge. In order to check factors such as changes in the infectivity of Plasmodium berghei or in the susceptibility of the host or to detect technical errors, a group of infected animals treated with pyrimethamine at dose levels producing definite increases in survival time is included in a positive control in every experiment.
(§5) In each experiment test compounds are administered in graded dosages. […] However, if an active drug is toxic for the host, its toxicity may become a limiting factor; continued increases in dose levels also increase the toxic effects and may result in the diminution of survival times. Deaths prior to the sixth day, when untreated controls begin to die, are regarded as nonparasitic and become the basis for toxicity evaluations. […] In calculating mean survival time, toxic deaths and 60-day survivors are not included.
(§6) Compounds are considered active which produce a cure in at least one test animal or which produce significant increases in mean survival times of the treated animals as compared with the mean survival times of untreated controls, provided that no drug related deaths (toxicity) are noted at the active dose.

[2] = system: Plasmodium berghei KBG 173; assay: Antimalarial blood schizonticidal test in mice; assay type: in vivo, Plasmodium berghei (infected ICR/HA Swiss mice); parameters: ΔMST (increase in mean survival time): unit: days; conditions: s.c.; for ED100 / minimal effective dose: Plasmodium berghei, sc, single dose; for ED100: read-out: Lowest Dose Curing All Mice; for minimal effective dose: read-out: Min. Curing Dose; for Cure/Treat at Min. Curing Dose: at the Min. Curing Dose
Source text: as §1, §2, §3, §4, §5, §6

S. aureus Smith = assay: In vitro antibacterial activity (MIC), S. aureus Smith; conditions: Staphylococcus aureus, 18 h
K. pneumoniae 10031 = assay: In vitro antibacterial activity (MIC), K. pneumoniae 10031; conditions: Klebsiella pneumoniae, 10031, 18 h
N. catarrhalis 8193 = assay: In vitro antibacterial activity (MIC), N. catarrhalis 8193; conditions: 18 h
P. vulgaris 6896 = assay: In vitro antibacterial activity (MIC), P. vulgaris 6896; conditions: Proteus vulgaris, 6896, 18 h
S. aureus 53-180 = assay: In vitro antibacterial activity (MIC), S. aureus 53-180; conditions: Staphylococcus aureus, 53180, 18 h
[3] = infected mice, highest dose with no deaths for any reason
[4] = alive on day 14 considered cured, no 60-day data
[5] = 336 h, alive on day 14 considered cured, no 60-day data
[6] = alive on day 14 considered cured
[7] = this is the highest dose tested

Row | Compound | MIC (E. coli 9637) [µg/mL] | MIC (S. paratyphi 11737) [µg/mL] | MTD [1, 3] [mg/kg] | ED100 ([2]; 1440 h, 60-day survivors) [mg/kg] | minimal effective dose ([2]; 1440 h, 60-day survivors) [mg/kg] | Cure/Treat at Min. Curing Dose ([2]; 60-day survivors) | MIC (S. aureus Smith) [µg/mL] | MIC (K. pneumoniae 10031) [µg/mL] | MIC (N. catarrhalis 8193) [µg/mL] | MIC (P. vulgaris 6896) [µg/mL] | MIC (S. aureus 53-180) [µg/mL] | also measured
1 | CC(C)c1ccc(Cn2ccc3c4c(N)nc(N)nc4ccc32)cc1 [Example 29] | 7.81 (≈ 23.6 µM) | 62.5 (≈ 189 µM) | 20 | 20 | 10 | 1/5 | 1.95 (≈ 5.88 µM) | 0.488 (≈ 1.47 µM) | 0.244 (≈ 0.736 µM) | 62.5 (≈ 189 µM) | 0.976 (≈ 2.94 µM) | ΔMST (increase in mean survival time) ([2]; dose 10 mg. per kg.): 10.2
2 | Cc1ccc(Cn2ccc3c4c(N)nc(N)nc4ccc32)c(C)c1 [Example 22] | 0.976 (≈ 3.08 µM) | 3.4 (≈ 10.7 µM) | – | – | – | – | 0.244 (≈ 0.769 µM) | 0.244 (≈ 0.769 µM) | 0.0152 (≈ 0.0479 µM) | 7.81 (≈ 24.6 µM) | 0.244 (≈ 0.769 µM) | MTD [1, 4]: 80 mg/kg; ED100 [2, 5]: 5 mg/kg; minimal effective dose [2, 5]: 5 mg/kg; Cure/Treat at Min. Curing Dose [2, 6]: 5/5; ΔMST (increase in mean survival time) ([2]; dose 2.5 mg. per kg., alive on day 14 considered cured, no 60-day data): 7.6
3 | N#Cc1ccccc1Cn1ccc2c3c(N)nc(N)nc3ccc21 [Example 14] | 0.244 (≈ 0.776 µM) | 0.488 (≈ 1.55 µM) | 160 | 40 | 10 | 1/5 | 0.244 (≈ 0.776 µM) | 0.122 (≈ 0.388 µM) | 0.061 (≈ 0.194 µM) | 1.95 (≈ 6.2 µM) | 0.244 (≈ 0.776 µM) | ΔMST (increase in mean survival time) ([2]; dose 10 mg. per kg.): 8.9
4 | CCCCCCCn1ccc2c3c(N)nc(N)nc3ccc21 [Example 53] | 31.3 (≈ 105 µM) | 62.5 (≈ 210 µM) | – | 640 | 320 | 2/5 | 31.3 (≈ 105 µM) | 3.9 (≈ 13.1 µM) | 0.488 (≈ 1.64 µM) | 250 (≈ 841 µM) | 15.6 (≈ 52.5 µM) | MTD [1, 7]: 640 mg/kg; ΔMST (increase in mean survival time) ([2]; dose 160 mg. per kg.): 9.5
5 | Nc1nc(N)c2c(ccc3c2ccn3CCCc2ccccc2)n1 [Example 56] | 250 (≈ 788 µM) | 250 (≈ 788 µM) | – | 320 | 160 | 3/5 | 250 (≈ 788 µM) | 250 (≈ 788 µM) | 250 (≈ 788 µM) | 250 (≈ 788 µM) | 250 (≈ 788 µM) | MTD [1, 7]: 640 mg/kg; ΔMST (increase in mean survival time) ([2]; dose 80 mg. per kg.): 10.7
6 | Nc1nc(N)c2c(ccc3c2ccn3Cc2ccccc2C(F)(F)F)n1 [Example 11] | 1.95 (≈ 5.46 µM) | 3.9 (≈ 10.9 µM) | 40 | 10 | 1.25 | 1/5 | 0.488 (≈ 1.37 µM) | 0.122 (≈ 0.341 µM) | < 0.0009 | 62.5 (≈ 175 µM) | 0.244 (≈ 0.683 µM) | ΔMST (increase in mean survival time) ([2]; dose 0.63 mg. per kg.): 7.3
7 | Nc1nc(N)c2c(ccc3c2ccn3Cc2c(Cl)cccc2Cl)n1 [Example 9] | > 250 | > 250 | – | – | – | – | 250 (≈ 698 µM) | 15.6 (≈ 43.5 µM) | 0.488 (≈ 1.36 µM) | > 250 | 250 (≈ 698 µM) | MTD [1, 4]: 160 mg/kg; ED100 [2, 5]: 40 mg/kg; minimal effective dose [2, 5]: 5 mg/kg; Cure/Treat at Min. Curing Dose [2, 6]: 1/5
8 | Nc1nc(N)c2c(ccc3c2ccn3Cc2ccccc2Cl)n1 [Example 6] | 0.976 (≈ 3.01 µM) | 1.95 (≈ 6.02 µM) | 160 | 20 | 20 | 5/5 | 0.976 (≈ 3.01 µM) | 0.976 (≈ 3.01 µM) | 0.061 (≈ 0.188 µM) | 7.81 (≈ 24.1 µM) | 0.976 (≈ 3.01 µM) | ΔMST (increase in mean survival time) ([2]; dose 5 mg. per kg.): 8.3
